Results reported in EP0198522A1, “Heterocyclic herbicides” (SHELL INTERNATIONALE RESEARCH MAATSCHAPPIJ B.V., priority 1985, dated 1986).

How the values were obtained:
Type in all cases: in vivo
mustard, Sinapsis alba [1] = test: Herbicidal activity, post-emergence foliar spray test; details: assessed visually twelve days after spraying, 0-9 scale, 0 = growth as untreated control, 9 = death
Method: (§1) To evaluate their herbicidal activity, compounds according to the invention were tested using as representative range of plants: maize, Zea mays (Mz); rice, Oryza sativa (R); barnyard grass, Echinochloa crusgalli (BG); oat, Avena sativa (0); linseed, Linum usitatissisum (L); mustard, Sinapsis alba (M); sugar beet, Beta vulgaris (SB) and soya bean, Glycine max (S).
(§2) The tests fall into two categories, pre-emergence and post-emergence. […] The post-emergence tests involved two types of test, viz., soil drench and foliar spray tests. In the soil drench tests the soil in which the seedling plants of the above species were growing was drenched with a liquid formulation containing a compound of the invention, and in the foliar spray tests the seedling plants were sprayed with such a formulation.
(§3) The soil used in the tests was a prepared horticultural loam.
(§4) These acetone solutions were diluted with water and the resulting formulations applied at dosage levels corresponding to 5 kg or 1 kg of active material per hectare in a volume equivalent to 600 litres per hectare in the soil spray and foliar spray test, and at a dosage of level equivalent to 10 kilograms of active material per hectare in a volume equivalent to approximately 3,000 litres per hectare in the soil drench tests.
(§5) In the pre-emexgence tests untreated sown soil and in the post-emergence tests untreated soil bearing seedling plants were used as controls.
(§6) The herbicidal effects of the test compounds were assessed visually twelve days after spraying the foliage and the soil, and thirteen days after drenching the soil and were recorded on a 0-9 scale. A rating 0 indicates growth as untreated control, a rating 9 indicates death. An increase of 1 unit on the linear scale approximates to a 10% increase in the level of effect.

[2] = tested on: barnyard grass, Echinochloa crusgalli; test: as above; details: assessed visually twelve days after spraying, 0-9 scale, 0 = growth as untreated control, 9 = death
Method: as §1, §2, §3, §4, §5, §6

soya bean, Glycine max [3] = test: as above; details: assessed visually twelve days after spraying, 0-9 scale, 0 = growth as untreated control, 9 = death
Method: as §1, §2, §3, §4, §5, §6

[4] = tested on: sugar beet, Beta vulgaris; test: as above; details: assessed visually twelve days after spraying, 0-9 scale, 0 = growth as untreated control, 9 = death
Method: as §1, §2, §3, §4, §5, §6

[5] = tested on: linseed, Linum usitatissisum; test: as above; details: assessed visually twelve days after spraying, 0-9 scale, 0 = growth as untreated control, 9 = death
Method: as §1, §2, §3, §4, §5, §6

maize, Zea mays [6] = test: as above; details: assessed visually twelve days after spraying, 0-9 scale, 0 = growth as untreated control, 9 = death
Method: as §1, §2, §3, §4, §5, §6

oat, Avena sativa [7] = test: as above; details: assessed visually twelve days after spraying, 0-9 scale, 0 = growth as untreated control, 9 = death
Method: as §1, §2, §3, §4, §5, §6

rice, Oryza sativa [8] = test: as above; details: assessed visually twelve days after spraying, 0-9 scale, 0 = growth as untreated control, 9 = death
Method: as §1, §2, §3, §4, §5, §6

mustard, Sinapsis alba [9] = test: Herbicidal activity, pre-emergence test (soil spray); details: assessed visually twelve days after spraying, 0-9 scale, 0 = growth as untreated control, 9 = death
Method: as §1, §2, §3, §4, §5, §6

[10] = tested on: barnyard grass, Echinochloa crusgalli; test: as above; details: assessed visually twelve days after spraying, 0-9 scale, 0 = growth as untreated control, 9 = death
Method: as §1, §2, §3, §4, §5, §6

soya bean, Glycine max [11] = test: as above; details: assessed visually twelve days after spraying, 0-9 scale, 0 = growth as untreated control, 9 = death
Method: as §1, §2, §3, §4, §5, §6

[12] = tested on: sugar beet, Beta vulgaris; test: as above; details: assessed visually twelve days after spraying, 0-9 scale, 0 = growth as untreated control, 9 = death
Method: as §1, §2, §3, §4, §5, §6

[13] = tested on: linseed, Linum usitatissisum; test: as above; details: assessed visually twelve days after spraying, 0-9 scale, 0 = growth as untreated control, 9 = death
Method: as §1, §2, §3, §4, §5, §6

maize, Zea mays [14] = test: as above; details: assessed visually twelve days after spraying, 0-9 scale, 0 = growth as untreated control, 9 = death
Method: as §1, §2, §3, §4, §5, §6

oat, Avena sativa [15] = test: as above; details: assessed visually twelve days after spraying, 0-9 scale, 0 = growth as untreated control, 9 = death
Method: as §1, §2, §3, §4, §5, §6

rice, Oryza sativa [16] = test: as above; details: assessed visually twelve days after spraying, 0-9 scale, 0 = growth as untreated control, 9 = death
Method: as §1, §2, §3, §4, §5, §6

mustard, Sinapsis alba [17] = test: Herbicidal activity, post-emergence soil drench test; details: 10 kg/ha soil drench; assessed visually thirteen days after drenching; 0-9 scale, 0 = growth as untreated control, 9 = death
Method: as §1, §2, §3, §4, §5, §6

[18] = tested on: barnyard grass, Echinochloa crusgalli; test: as above; details: 10 kg/ha soil drench; assessed visually thirteen days after drenching; 0-9 scale, 0 = growth as untreated control, 9 = death
Method: as §1, §2, §3, §4, §5, §6

soya bean, Glycine max [19] = test: as above; details: 10 kg/ha soil drench; assessed visually thirteen days after drenching; 0-9 scale, 0 = growth as untreated control, 9 = death
Method: as §1, §2, §3, §4, §5, §6

[20] = tested on: sugar beet, Beta vulgaris; test: as above; details: 10 kg/ha soil drench; assessed visually thirteen days after drenching; 0-9 scale, 0 = growth as untreated control, 9 = death
Method: as §1, §2, §3, §4, §5, §6

[21] = tested on: linseed, Linum usitatissisum; test: as above; details: 10 kg/ha soil drench; assessed visually thirteen days after drenching; 0-9 scale, 0 = growth as untreated control, 9 = death
Method: as §1, §2, §3, §4, §5, §6

maize, Zea mays [22] = test: as above; details: 10 kg/ha soil drench; assessed visually thirteen days after drenching; 0-9 scale, 0 = growth as untreated control, 9 = death
Method: as §1, §2, §3, §4, §5, §6

oat, Avena sativa [23] = test: as above; details: 10 kg/ha soil drench; assessed visually thirteen days after drenching; 0-9 scale, 0 = growth as untreated control, 9 = death
Method: as §1, §2, §3, §4, §5, §6

rice, Oryza sativa [24] = test: as above; details: 10 kg/ha soil drench; assessed visually thirteen days after drenching; 0-9 scale, 0 = growth as untreated control, 9 = death
Method: as §1, §2, §3, §4, §5, §6

SMILES	Foliar spray M (herbicidal effect rating) (mustard, Sinapsis alba [1]; Dosage 1 kg/ha)	Foliar spray M (herbicidal effect rating) (mustard, Sinapsis alba [1]; Dosage 5 kg/ha)	Foliar spray BG (herbicidal effect rating) ([2]; Dosage 1 kg/ha)	Foliar spray BG (herbicidal effect rating) ([2]; Dosage 5 kg/ha)	Foliar spray S (herbicidal effect rating) (soya bean, Glycine max [3]; Dosage 1 kg/ha)	Foliar spray S (herbicidal effect rating) (soya bean, Glycine max [3]; Dosage 5 kg/ha)	Foliar spray SB (herbicidal effect rating) ([4]; Dosage 1 kg/ha)	Foliar spray SB (herbicidal effect rating) ([4]; Dosage 5 kg/ha)	Foliar spray L (herbicidal effect rating) ([5]; Dosage 1 kg/ha)	Foliar spray L (herbicidal effect rating) ([5]; Dosage 5 kg/ha)	Foliar spray Mz (herbicidal effect rating) (maize, Zea mays [6]; Dosage 1 kg/ha)	Foliar spray Mz (herbicidal effect rating) (maize, Zea mays [6]; Dosage 5 kg/ha)	Foliar spray O (herbicidal effect rating) (oat, Avena sativa [7]; Dosage 1 kg/ha)	Foliar spray O (herbicidal effect rating) (oat, Avena sativa [7]; Dosage 5 kg/ha)	Foliar spray R (herbicidal effect rating) (rice, Oryza sativa [8]; Dosage 1 kg/ha)	Foliar spray R (herbicidal effect rating) (rice, Oryza sativa [8]; Dosage 5 kg/ha)	Pre-emergence M (herbicidal effect rating) (mustard, Sinapsis alba [9]; Dosage 1 kg/ha)	Pre-emergence M (herbicidal effect rating) (mustard, Sinapsis alba [9]; Dosage 5 kg/ha)	Pre-emergence BG (herbicidal effect rating) ([10]; Dosage 1 kg/ha)	Pre-emergence BG (herbicidal effect rating) ([10]; Dosage 5 kg/ha)	further results
CC(C)C1(C)NC(c2cc3c(cc2C(=O)O)OCO3)=NC1=O (stereo not drawn) [Example 7, 2-(5-isopropyl-5-methyl-4-oxo-2-imidazolin-2-yl)-[1,3]-dioxolo [4,5-d]benzoic acid]	7	7	5	6	0	4	6	7	3	4	2	3	1	2	2	3	4	7	3	7	Pre-emergence S (herbicidal effect rating) (soya bean, Glycine max [11]; Dosage 1 kg/ha): 0; Pre-emergence S (herbicidal effect rating) (soya bean, Glycine max [11]; Dosage 5 kg/ha): 1; Pre-emergence SB (herbicidal effect rating) ([12]; Dosage 1 kg/ha): 7; Pre-emergence SB (herbicidal effect rating) ([12]; Dosage 5 kg/ha): 8; Pre-emergence L (herbicidal effect rating) ([13]; Dosage 1 kg/ha): 3; Pre-emergence L (herbicidal effect rating) ([13]; Dosage 5 kg/ha): 7; Pre-emergence Mz (herbicidal effect rating) (maize, Zea mays [14]; Dosage 1 kg/ha): 1; Pre-emergence Mz (herbicidal effect rating) (maize, Zea mays [14]; Dosage 5 kg/ha): 6; Pre-emergence O (herbicidal effect rating) (oat, Avena sativa [15]; Dosage 1 kg/ha): 0; Pre-emergence O (herbicidal effect rating) (oat, Avena sativa [15]; Dosage 5 kg/ha): 5; Pre-emergence R (herbicidal effect rating) (rice, Oryza sativa [16]; Dosage 1 kg/ha): 8; Pre-emergence R (herbicidal effect rating) (rice, Oryza sativa [16]; Dosage 5 kg/ha): 9
COC(=O)c1cc2cc3c(cc2nc1C1=NC(=O)C(C)(C(C)C)N1)OCO3 (stereo not drawn) [Example 1, Methyl-2-(5-i.saprapyl-5-methyl-4-oxo-2-imidazolin-2-yl)-[1,3]-dioxolo[4,5-g] quinoline-3-carboxylate]	5	7	4	7	0	2	6	8	6	7	5	7	5	6	4	6	4	7	5	8	Soil drench 10/kg/ha M (herbicidal effect rating) (mustard, Sinapsis alba [17]): 8; Soil drench 10/kg/ha BG (herbicidal effect rating) [18]: 7; Soil drench 10/kg/ha S (herbicidal effect rating) (soya bean, Glycine max [19]): 4; Soil drench 10/kg/ha SB (herbicidal effect rating) [20]: 7; Soil drench 10/kg/ha L (herbicidal effect rating) [21]: 6; Soil drench 10/kg/ha Mz (herbicidal effect rating) (maize, Zea mays [22]): 6; Soil drench 10/kg/ha O (herbicidal effect rating) (oat, Avena sativa [23]): 6; Soil drench 10/kg/ha R (herbicidal effect rating) (rice, Oryza sativa [24]): 7; Pre-emergence S (herbicidal effect rating) (soya bean, Glycine max [11]; Dosage 1 kg/ha): 0; Pre-emergence S (herbicidal effect rating) (soya bean, Glycine max [11]; Dosage 5 kg/ha): 0; Pre-emergence SB (herbicidal effect rating) ([12]; Dosage 1 kg/ha): 6; Pre-emergence SB (herbicidal effect rating) ([12]; Dosage 5 kg/ha): 6; Pre-emergence L (herbicidal effect rating) ([13]; Dosage 1 kg/ha): 6; Pre-emergence L (herbicidal effect rating) ([13]; Dosage 5 kg/ha): 7; Pre-emergence Mz (herbicidal effect rating) (maize, Zea mays [14]; Dosage 1 kg/ha): 5; Pre-emergence Mz (herbicidal effect rating) (maize, Zea mays [14]; Dosage 5 kg/ha): 7; Pre-emergence O (herbicidal effect rating) (oat, Avena sativa [15]; Dosage 1 kg/ha): 5; Pre-emergence O (herbicidal effect rating) (oat, Avena sativa [15]; Dosage 5 kg/ha): 7; Pre-emergence R (herbicidal effect rating) (rice, Oryza sativa [16]; Dosage 1 kg/ha): 4; Pre-emergence R (herbicidal effect rating) (rice, Oryza sativa [16]; Dosage 5 kg/ha): 8
